In the test the test system is CEM cells HIV-1 protection, formazan growth assay. Description: NCI AIDS Antiviral Assay. The settings on record: for IC50: measured here: growth of uninfected CEM cells. A digest of the protocol: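 Steps: treat uninfected and HIV-1-infected human CEM cells at five drug levels; quantify growth by soluble formazan; retest any compound reaching 50% protection; classify actives from the retest.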

Values joined by “and” are separate entries in the source; they are usually repeats but may differ in a detail not shown here. Identical values can stand only once. Active and inactive are the calls of the source.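 How the source made its calls: active means compounds giving half or more protection of infected cells from virus-caused growth loss, again on retest; inactive means the rest.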

`COC(=O)/C=C/c1ccc2c(c1)CC1(Cc3ccccc3C1)C2`: the EC50 (usually the midpoint of the concentration-response curve) was more than 200 µM and the IC50 (usually the concentration that inhibits the measured activity by half) was more than 200 µM. With `CC1(C)CCC[C@]2(C)c3occc3CCC12` (stereo partly drawn), the result was inactive.

For the compound `NC(=O)Nc1cc(O)ccc1N=Nc1ccc(S(=O)(=O)Nc2ccccn2)cc1`, the EC50 is more than 87.1 µM and the IC50 was more than 87.1 µM.

For `CC(/C=N/N=C(N)N)=N\N=C(N)N`, the EC50 is more than 977 µM; the IC50 is 2.75 µM and 0.513 µM. Take `COc1ccc(NC(=S)NNC(=O)c2nsc3ccccc23)cc1`: the EC50 is more than 138 µM and the concentration for half-maximal inhibition (IC50) was found to be 19.1 µM. The corresponding values for `COc1ccc(N2C(=O)C(=O)N(c3ccccc3[N+](=O)[O-])C2=S)cc1` are more than 200 µM and 27.5 µM. In the case of `Cc1cc(C)c2c(c1)CC1(Cc3ccc(C)c(C)c3C1=O)C2=O` (stereo not drawn), the EC50 is more than 100 µM and the IC50 was more than 100 µM.

Turning to `Cc1cc2nc3n(c2cc1C)C(c1c(F)cccc1F)SC3` (stereo not drawn), the EC50 was more than 44.7 µM and the half-inhibitory concentration (IC50) turned out to be 20.9 µM. As for `Cc1cc(S(=O)(=O)Nc2nncn2-c2ccc(Cl)cc2)c(S)cc1Cl`, the outcome was inactive.

As to `COc1cc2occ(-c3ccc(O)c(O)c3)c(=O)c2cc1O`, the EC50 was more than 200 µM and the half-inhibitory concentration (IC50) came to 26.3 µM. The corresponding values for `Cc1ccc2c(c1)C(C1Cc3cccc(C)c3C1=O)OC2=O` (stereo not drawn) are more than 200 µM and more than 200 µM. The corresponding values for `CN(C)c1ccc(/C=C(\NC(=O)c2ccccc2)C2=NC(CCC(=O)O)C(=O)O2)cc1` (stereo not drawn) are more than 50.1 µM and more than 50.1 µM. The corresponding values for `O=C(Nc1ccc(F)cc1)N(C1CCCCC1)C1CCCCC1` are more than 200 µM and 81.3 µM. As to `CN(C)C=Nc1c2c(nc3ccccc13)CCCC2`, the EC50 was more than 200 µM and the IC50 was more than 200 µM. Consider `CC1/C=C/[C@@]2(C)CCC(C(C)(C)O)C2C(O)C[C@](C)(O)/C=C/C1` (stereo partly drawn), for which the outcome was inactive.

Turning to `C=CCc1c(O)c2nsnc2c2nsnc12`, the EC50 was more than 200 µM and the half-maximal inhibitory concentration (IC50) was more than 200 µM. As to `CCOC(=O)NC(Nc1ncccn1)(C(F)(F)F)C(F)(F)F`, the half-maximal effective concentration (EC50) is more than 191 µM and the concentration for half-maximal inhibition (IC50) came out at 186 µM. The corresponding values for `CCCC1OC[C@H]2OC(n3cc(C)c(=O)[nH]c3=O)C[C@H]2N1O` (stereo partly drawn) are 52.5 µM and more than 200 µM. `CN(C(=O)c1cc2c(s1)sc1c(=O)n(C)c3ccccc3c12)c1ccccc1`: the EC50 is more than 200 µM and the IC50 stood at 2.95 µM. The corresponding values for `CNc1ccc(F)cc1SSc1cc(F)ccc1NC` are more than 200 µM and 4.79 µM.

`CCCC(O)C(=O)C(CCC)N(CC)CC` (stereo not drawn): the EC50 is more than 1100 µM and the IC50 was more than 1100 µM.

On to `S=C1NC2=C(COC/C2=C\c2cccc(Cl)c2)C(c2cccc(Cl)c2)N1` (stereo not drawn), for which the result was inactive.

With `CC(C)(C)n1c(=O)[nH]c(=O)n1C(C)(C)C`, the EC50 is more than 200 µM and the IC50 was more than 200 µM.

On to `Cc1ccc(N2C(=O)C3C=CC(n4[nH]c(=O)n(Cc5ccccc5)c4=O)CC3C2=O)cc1` (stereo not drawn), for which the EC50 is more than 417 µM and the IC50 is more than 417 µM.

In the case of `CCOC(=O)C1=C(C)C(C(=O)OC)/C(=C/c2cccc3cccnc23)C1=O` (stereo not drawn), the EC50 is more than 200 µM and the IC50 stood at 10.7 µM. The corresponding values for `O=c1c(O)c(-c2ccc(O)cc2)oc2cc(O)cc(O)c12` are more than 97.7 µM and 51.3 µM. On to `COc1ccc(C(=O)/C(=N/Nc2ccccc2)c2ccc(OC)cc2)cc1`, for which the outcome was inactive. With `C#CC1(O)CCC2[C@@H]3CCc4cc(Oc5nc(F)nc(-c6c7ccccc7cn6C)n5)ccc4C3CC[C@@]21C` (stereo partly drawn), the EC50 was more than 10 µM and the IC50 was more than 10 µM. Regarding `CCOC(=O)c1ccc(NCc2ccc3nc(OC)c(OC)nc3c2)cc1`, the EC50 was more than 100 µM and the IC50 was more than 100 µM.

With `CSS(C)(=O)=O`, the EC50 was more than 1120 µM and the 50% inhibitory concentration (IC50) amounted to 53.7 µM.

With `CN(C)/C=N\c1nncc2[nH]cnc12`, the EC50 was more than 200 µM and the half-maximal inhibitory concentration (IC50) came out at 15.1 µM. The corresponding values for `O=[N+]([O-])C(/C(Cl)=C(\Cl)Br)=C(/Cl)SCc1ccccc1` are more than 200 µM and 1.78 µM.

On to `Cc1ccc(CC(Cc2ccc(C)cc2C(=O)O)C(=O)O)cc1` (stereo not drawn), for which the EC50 was more than 200 µM and the IC50 is more than 200 µM.

For the compound `Nc1c2ccccc2nc2ccccc12`, the EC50 was more than 200 µM and the IC50 is 2.19 µM. The corresponding values for `CC(=O)C(=Cc1ccc(C=C(C(C)=O)C(C)=O)cc1)C(C)=O` are more than 200 µM and 0.933 µM. `O=S(c1ccc(Cl)cc1)c1ccccc1C1=NCCN1` (stereo not drawn): the EC50 is more than 200 µM and the IC50 is more than 200 µM. As for `CC(=O)O[C@@H](c1nccn1Cc1ccccc1)[C@H]1OC(C)(C)O[C@@H]1[C@H]1COC(C)(C)O1`, the EC50 was more than 200 µM and the IC50 is more than 200 µM.

With `CC1(C)OC2COC3([C@@H]4OC(C)(C)O[C@@H]4CO)OC(C)(C)OC3C2O1` (stereo partly drawn), the EC50 was more than 200 µM and the concentration for half-maximal inhibition (IC50) was more than 200 µM. As to `Cc1cc(C)c(C(=O)/C=C/c2ccccc2)c(C)c1`, the EC50 was more than 28.8 µM and the half-inhibitory concentration (IC50) was more than 28.8 µM. In the case of `O=c1[nH]c(=O)n(C2C=CC(CO)O2)cc1C(OCC(F)(F)F)OCC(F)(F)F` (stereo not drawn), the EC50 is more than 141 µM and the IC50 was 72.4 µM. The corresponding values for `CCC1=CCC(P(=O)(c2ccccc2)c2ccccc2)CC1C` (stereo not drawn) are more than 11.5 µM and more than 11.5 µM. In the case of `CN1C(=O)C(O)CC1c1ccc(C(F)(F)F)cc1` (stereo not drawn), the outcome was inactive. Still for that read-out and setting: then `OCc1cc2c(cn1)[nH]c1ccc(NCc3ccccc3)cc12`, with “inactive”.

As to `CC(=O)OCCOCN1C(=O)CC(=O)NC1=O`, the EC50 was more than 200 µM and the 50% inhibitory concentration (IC50) was more than 200 µM. As to `Cc1ccc(NC(=O)CCC/C(CC(=O)c2ccc(Br)cc2)=N/NC(=O)CC#N)cc1`, the EC50 was more than 102 µM and the concentration for half-maximal inhibition (IC50) is more than 102 µM. As to `Nc1ncnc2c1ncn2C1OC2CSCC2(O)C1O` (stereo not drawn), the EC50 is more than 200 µM and the 50% inhibitory concentration (IC50) was 138 µM. For `O=c1[nH]c(=O)n(C2CC(O)C(CO)O2)cc1S` (stereo not drawn), the result was inactive.

On to `CC(=O)/C(=C/N1C(=O)CC(=O)NC1=S)C(=O)Nc1ccccc1C`, for which the EC50 is more than 200 µM and the IC50 is 178 µM.

For the compound `CCOC(=O)NP(=O)(N1CC1)N1CC1`, the EC50 is more than 200 µM and the IC50 was more than 200 µM. Turning to `CCc1cccc(C(C)C)c1N1C(=O)C(=O)C(c2nc3ccccc3s2)C(=O)C1=O`, the EC50 was more than 17.4 µM and the IC50 was more than 17.4 µM. `ClC(Cl)(Cl)SSC(=Nc1ccccc1)SSC(Cl)(Cl)Cl`: the EC50 was more than 200 µM and the concentration for half-maximal inhibition (IC50) came to 4.79 µM. In the case of `C[Si](C)(C)/C=C\CCNC=O`, the EC50 is more than 1450 µM and the half-maximal inhibitory concentration (IC50) was more than 1450 µM. For the compound `CN(C)C(C(N)=O)c1ccc(Cl)cc1` (stereo not drawn), the outcome was inactive. For `CN(C)c1c(C2CC(O)C(CO)O2)c(=O)c1=O` (stereo not drawn), the EC50 is more than 200 µM and the half-inhibitory concentration (IC50) is more than 200 µM. On to `CCOC(=O)c1ccc(NC(=S)Nc2ncccc2C)cc1`, for which the EC50 is more than 200 µM and the IC50 was 158 µM. For `Cc1ccc(S(=O)(=O)NCC2CCCCC2=O)cc1` (stereo not drawn), the EC50 was more than 129 µM and the IC50 came to 123 µM.

With `Nc1nn2cnnc2s1`, the result was inactive. For the compound `Cc1nc2cc(N)c(Cl)cc2[nH]1`, the EC50 was more than 200 µM and the IC50 is more than 200 µM.

For the compound `COc1ccc(C(=O)Cc2nc3nnc(N)n3nc2CC(=O)c2ccc(OC)cc2)cc1`, the EC50 was more than 575 µM and the IC50 is more than 575 µM. Regarding `O=S1(=O)CCC(Br)c2ccccc2C1` (stereo not drawn), the EC50 was more than 200 µM and the IC50 was more than 200 µM. In the case of `O=C(O)CCC(=O)NNC(=O)CCC(=O)O`, the EC50 is more than 155 µM and the IC50 is more than 155 µM.

In the case of `CC(=O)N(NC(=O)P(=O)(OC(C)C)OC(C)C)c1ccc([N+](=O)[O-])cc1`, the EC50 was more than 129 µM and the IC50 is more than 129 µM. `COc1ccc2c(c1)NC1(O)c3ccccc3C(=O)C21O` (stereo not drawn): the EC50 is more than 331 µM and the concentration for half-maximal inhibition (IC50) is more than 331 µM. For `COC(=O)C1(C)C=CC(=O)C2(C)C1C(O)C1OC3CC(c4ccoc4)C(C)=C3C1(C)C2CC(=O)O` (stereo not drawn), the EC50 is more than 490 µM and the concentration for half-maximal inhibition (IC50) was more than 490 µM. As for `COc1ccc(I)c(CCC(CO)C2=CCC3(CC2)OCCO3)c1` (stereo not drawn), the EC50 was more than 16.2 µM and the IC50 was more than 16.2 µM.

Regarding `NC1=Nc2ccccc2Sc2ccccc21`, the EC50 was more than 60.3 µM and the IC50 is more than 60.3 µM. In the case of `Cc1cc(Cl)cc2c1NC(=O)C2(O)C(C(=O)c1ccccc1)c1ccccc1` (stereo not drawn), the EC50 was more than 91.2 µM and the IC50 was more than 91.2 µM. On to `CC(C)=COS(=O)(=O)C(F)(F)F`, for which the EC50 is more than 200 µM and the half-inhibitory concentration (IC50) is 110 µM.

As to `Nc1nc(Cl)cc(OCC2(CO)CC2)n1`, the EC50 was more than 200 µM and the IC50 was more than 200 µM. As for `CCN1CCCn2c(=S)[nH]c3cc(Br)cc1c32`, the concentration giving a half-maximal response (EC50) is 57.5 µM and the IC50 came out at 97.7 µM. `CC(C)=CCc1c(O)cc(O)c2c1OC(c1ccc(O)cc1)C(O)C2=O` (stereo not drawn): the EC50 is more than 363 µM and the IC50 was 17.8 µM. The corresponding values for `S=C1CCCCCN1` are more than 1950 µM and 1020 µM. Consider `O=C(O)CN1CCN2CCCCCN(CC1)CCN(CC(=O)O)CC2`, for which the EC50 is more than 200 µM and the IC50 came to 12.6 µM. Consider `COc1cc(O)c2cc1Oc1ccc(cc1)CC1=NCCc3cc(OC)c(cc31)Oc1c(OC)c(OC)c(OC)c3c1[C@H](C2)N(C)CC3`, for which the outcome was inactive. For the compound `CCCCCCCCCCCCCCCC[NH][Ge]([NH]CCCCCCCCCCCCCCCC)([NH]CCCCCCCCCCCCCCCC)[NH]CCCCCCCCCCCCCCCC`, the EC50 was more than 7.41 µM and the IC50 turned out to be 4.79 µM. The corresponding values for `CCCCn1cnnc1NS(=O)(=O)c1cc(C)c(Cl)cc1SCC(=O)O` are more than 200 µM and more than 200 µM. The corresponding values for `CCOC(=O)CCn1ncc(Cl)c(Cl)c1=O` are more than 933 µM and 4.07 µM.

The values are drawn from PubChem BioAssay AID179 (DTP/NCI, 2004).
